In patent publication US20240238242A1, “EGCG buccal tablet and use thereof” (priority 2023, published 2024):
In brackets after ≈: the same amount, converted by molar mass. Several values for one entry are separate records, joined by “and”; a condition that tells them apart may be missing. Identical values can stand only once. Like-named read-outs stand apart in the source and are kept apart here.

Legend:
[1] = system: Influenza A H3N2 virus (H3N2); format: cell-based; conditions: for average inactivation efficiency against virus / inactivation efficiency against the virus: H3N2 virus; for inactivation efficiency against the virus: single experiment
SARS-CoV-2/C57MA14 = system: SARS-CoV-2/C57MA14; parameters: species or system BALB/c mice; conditions: mouse, in vivo
[2] = system: Helicobacter pylori (Hp) strain B5-3; assay: In vitro bactericidal concentration (MBC) against Helicobacter pylori, broth dilution and plate counting; conditions: for Bactericidal rate % / Concentration CFU/mL / Average number of colonies: shake flask about 24 hours; for Average number of colonies: dilution factor 10^−4
[3] = rats, intragastric decaffeinated green tea (DGT) 200 mg/kg; cited from earlier work
SARS-CoV-2 BJ-01 virus = assay: In vitro effect of EGCG on SARS-CoV-2 BJ-01 infection (co-incubation, then Vero-E6 cells); format: cell-based; conditions: 2.18 mM EGCG co-incubated 1, 2, 4 and 8 minutes at room temperature; Vero-E6, 48 hours
Excerpt: In this experimental example, SARS-CoV-2 BJ-01 virus was provided by the Military Veterinary Research Institute, Academy of Military Medical Sciences, Academy of Military Sciences, and its Accession Number at NCBI was MT291831; Vero-E6 cells were provided by the Military Veterinary Research Institute, Academy of Military Medical Sciences, Academy of Military Sciences; and the culture medium was Dulbecco's Modified Eagle Medium, purchased from Thermo Scientific, catalog number: C11995500BT.
The incubation of drug EGCG with SARS-CoV-2 BJ-01 virus in the culture medium was designed according to the time gradient, in which the incubation time was: 1 minute, 2 minutes, 4 minutes, 8 minutes, the EGCG concentration in the incubation system was 1 mg/mL (2.18 mM), and the virus titer in the incubation system was 10^7 TCID50. After incubation, the incubation system was diluted 10 times and used to infect Vero-E6 cells. After 48 hours, the Ct value of the cell supernatant was detected.

[4] = system: Madin-darby canine kidney cells (MDCK)

**Q.** Which “CPE test, virus replication in cell wells 1-10” value (shortened to “CPE test … in cell wells 1-10”) ([1]; 1 mM EGCG + H3N2 virus, 5 minute, first experiment, dilution factor 10^6) does the source give for `O=C(O[C@@H]1Cc2c(O)cc(O)cc2O[C@@H]1c1cc(O)c(O)c(O)c1)c1cc(O)c(O)c(O)c1` [EGCG, Epigallocatechin gallate] here?
**A.** −

**Q.** What about the “CPE test … in cell wells 1-10” value ([1]; 1 mM EGCG + H3N2 virus, 5 minute, first experiment, dilution factor 10^7) of the same compound?
**A.** −

**Q.** And the “CPE test … in cell wells 1-10” value ([1]; 1 mM EGCG + H3N2 virus, 5 minute, first experiment, dilution factor 10^8)?
**A.** −

**Q.** And the “CPE test … in cell wells 1-10” value ([1]; 1 mM EGCG + H3N2 virus, 5 minute, second experiment, dilution factor 10^3)?
**A.** −

**Q.** And the “CPE test … in cell wells 1-10” value ([1]; 1 mM EGCG + H3N2 virus, 5 minute, second experiment, dilution factor 10^4)?
**A.** −

**Q.** What about the “CPE test … in cell wells 1-10” value ([1]; 1 mM EGCG + H3N2 virus, 5 minute, second experiment, dilution factor 10^5) of the same compound?
**A.** −

**Q.** What about the “CPE test … in cell wells 1-10” value ([1]; 1 mM EGCG + H3N2 virus, 5 minute, second experiment, dilution factor 10^6) of the same compound?
**A.** −

**Q.** What about the “CPE test … in cell wells 1-10” value ([1]; 1 mM EGCG + H3N2 virus, 5 minute, second experiment, dilution factor 10^7) of the same compound?
**A.** −

**Q.** And the “CPE test … in cell wells 1-10” value ([1]; 1 mM EGCG + H3N2 virus, 5 minute, second experiment, dilution factor 10^8)?
**A.** −

**Q.** And the “average inactivation efficiency against virus” value (“average inactivation efficiency” for short) ([1]; 1 mM EGCG, 1 minute, three experiments)?
**A.** 61.78%

**Q.** What about the “inactivation efficiency against the virus” value ([1]; 1 mM EGCG, 5 minutes) of the same compound?
**A.** 99.50% and 99.87%

**Q.** And the “average inactivation efficiency” value ([1]; 1 mM EGCG, 5 minutes, two experiments)?
**A.** 99.69%

**Q.** What about the “CPE test, virus replication in cell wells (wells 1-10)” value (“CPE test … (wells 1-10)” for short) ([1]; 5 mM EGCG + H3N2 virus, 1 minute, first experiment, dilution factor 10^4) of the same compound?
**A.** −

**Q.** And the “CPE test … (wells 1-10)” value ([1]; 5 mM EGCG + H3N2 virus, 1 minute, first experiment, dilution factor 10^5)?
**A.** −

**Q.** What about the “CPE test … (wells 1-10)” value ([1]; 5 mM EGCG + H3N2 virus, 1 minute, first experiment, dilution factor 10^6) of the same compound?
**A.** −

**Q.** What about the “CPE test … (wells 1-10)” value ([1]; 5 mM EGCG + H3N2 virus, 1 minute, first experiment, dilution factor 10^7) of the same compound?
**A.** −

**Q.** What about the “CPE test … (wells 1-10)” value ([1]; 5 mM EGCG + H3N2 virus, 1 minute, first experiment, dilution factor 10^8) of the same compound?
**A.** −

**Q.** What about the “CPE test … (wells 1-10)” value ([1]; 5 mM EGCG + H3N2 virus, 1 minute, second experiment, dilution factor 10^3) of the same compound?
**A.** +

**Q.** And the “CPE test … (wells 1-10)” value ([1]; 5 mM EGCG + H3N2 virus, 1 minute, second experiment, dilution factor 10^4)?
**A.** −

**Q.** And the “CPE test … (wells 1-10)” value ([1]; 5 mM EGCG + H3N2 virus, 1 minute, second experiment, dilution factor 10^5)?
**A.** −

**Q.** And the “CPE test … (wells 1-10)” value ([1]; 5 mM EGCG + H3N2 virus, 1 minute, second experiment, dilution factor 10^6)?
**A.** −

**Q.** And the “CPE test … (wells 1-10)” value ([1]; 5 mM EGCG + H3N2 virus, 1 minute, second experiment, dilution factor 10^7)?
**A.** −

**Q.** And the “CPE test … (wells 1-10)” value ([1]; 5 mM EGCG + H3N2 virus, 1 minute, second experiment, dilution factor 10^8)?
**A.** −

**Q.** And the “CPE test … in cell wells 1-10” value ([1]; 5 mM EGCG + H3N2 virus, 1 minute, third experiment, dilution factor 10^4)?
**A.** −

**Q.** What about the “CPE test … in cell wells 1-10” value ([1]; 5 mM EGCG + H3N2 virus, 1 minute, third experiment, dilution factor 10^5) of the same compound?
**A.** −

**Q.** What about the “CPE test … in cell wells 1-10” value ([1]; 5 mM EGCG + H3N2 virus, 1 minute, third experiment, dilution factor 10^6) of the same compound?
**A.** −

**Q.** And the “CPE test … in cell wells 1-10” value ([1]; 5 mM EGCG + H3N2 virus, 1 minute, third experiment, dilution factor 10^7)?
**A.** −

**Q.** What about the “CPE test … in cell wells 1-10” value ([1]; 5 mM EGCG + H3N2 virus, 1 minute, third experiment, dilution factor 10^8) of the same compound?
**A.** −

**Q.** And the “CPE test … in cell wells 1-10” value ([1]; 5 mM EGCG + H3N2 virus, 5 minute, first experiment, dilution factor 10^4)?
**A.** − and +

**Q.** What about the “CPE test … in cell wells 1-10” value ([1]; 5 mM EGCG + H3N2 virus, 5 minute, first experiment, dilution factor 10^5) of the same compound?
**A.** − and +

**Q.** What about the “CPE test … in cell wells 1-10” value ([1]; 5 mM EGCG + H3N2 virus, 5 minute, first experiment, dilution factor 10^6) of the same compound?
**A.** −

**Q.** And the “CPE test … in cell wells 1-10” value ([1]; 5 mM EGCG + H3N2 virus, 5 minute, first experiment, dilution factor 10^7)?
**A.** −

**Q.** What about the “CPE test … in cell wells 1-10” value ([1]; 5 mM EGCG + H3N2 virus, 5 minute, first experiment, dilution factor 10^8) of the same compound?
**A.** −

**Q.** What about the “CPE test … in cell wells 1-10” value ([1]; 5 mM EGCG + H3N2 virus, 5 minute, second experiment, dilution factor 10^3) of the same compound?
**A.** +

**Q.** What about the “CPE test … in cell wells 1-10” value ([1]; 5 mM EGCG + H3N2 virus, 5 minute, second experiment, dilution factor 10^4) of the same compound?
**A.** −

**Q.** What about the “CPE test … in cell wells 1-10” value ([1]; 5 mM EGCG + H3N2 virus, 5 minute, second experiment, dilution factor 10^5) of the same compound?
**A.** −

**Q.** What about the “CPE test … in cell wells 1-10” value ([1]; 5 mM EGCG + H3N2 virus, 5 minute, second experiment, dilution factor 10^6) of the same compound?
**A.** −

**Q.** And the “CPE test … in cell wells 1-10” value ([1]; 5 mM EGCG + H3N2 virus, 5 minute, second experiment, dilution factor 10^7)?
**A.** −

**Q.** What about the “CPE test … in cell wells 1-10” value ([1]; 5 mM EGCG + H3N2 virus, 5 minute, second experiment, dilution factor 10^8) of the same compound?
**A.** −

**Q.** And the “inactivation efficiency against the virus” value ([1]; 5 mM EGCG, 1 minute)?
**A.** 98.74% and 96.84%

**Q.** And the “average inactivation efficiency” value ([1]; 5 mM EGCG, 1 minute, three experiments)?
**A.** 98.11%

**Q.** What about the “inactivation efficiency against the virus” value ([1]; 5 mM EGCG, 5 minutes) of the same compound?
**A.** 97.49% and 98.74%

**Q.** What about the “average inactivation efficiency” value ([1]; 5 mM EGCG, 5 minutes, two experiments) of the same compound?
**A.** 98.32%

**Q.** And the “mice protected from death caused by lethal dose infection” value (SARS-CoV-2/C57MA14)?
**A.** 60%

**Q.** What about the “viral nucleic acid loads in lungs and turbinates” value (SARS-CoV-2/C57MA14) of the same compound?
**A.** significantly reduce

**Q.** What about the Bactericidal rate % ([2]; EGCG 100 μM) of the same compound?
**A.** 98.8%

**Q.** What about the “Concentration CFU/mL” value ([2]; EGCG 100 μM) of the same compound?
**A.** 1.4 × 10^7 CFU/mL

**Q.** And the “Average number of colonies” value ([2]; EGCG 100 μM)?
**A.** 142

**Q.** What about the Bactericidal rate % ([2]; EGCG 200 μM) of the same compound?
**A.** >99.9%

**Q.** What about the “Concentration CFU/mL” value ([2]; EGCG 200 μM) of the same compound?
**A.** 3.5 × 10^6 CFU/mL

**Q.** And the “Average number of colonies” value ([2]; EGCG 200 μM)?
**A.** 35

**Q.** And the Bactericidal rate % ([2]; EGCG 400 μM)?
**A.** >99.9%

**Q.** What about the “Concentration CFU/mL” value ([2]; EGCG 400 μM) of the same compound?
**A.** 2.2 × 10^6 CFU/mL

**Q.** And the “Average number of colonies” value ([2]; EGCG 400 μM)?
**A.** 22

**Q.** And the MBC ([2]; Helicobacter pylori, 24 h, read-out: minimum bactericidal concentration (MBC))?
**A.** 200 µM (≈ 91.7 µg/mL)

**Q.** What about the Hp inactivated ([2]; shake flask culture, lowest concentration of 100 μM) of the same compound?
**A.** about 98.9%

**Q.** And the “bioavailability of EGCG” value [3]?
**A.** 0.1%

**Q.** What about the “number of live viruses (virus copy number in cell supernatant)” value (SARS-CoV-2 BJ-01 virus) of the same compound?
**A.** significantly reduced

**Q.** What about the “CPE test / cytotoxicity, negative control group” value [4] of the same compound?
**A.** −

**Q.** What about the “Cytotoxicity / CPE in cell wells 1-10, negative control group” value [4] of the same compound?
**A.** −

**Q.** What about the “Cytotoxicity / CPE in cell wells, negative control group (EGCG + culture medium)” value [4] of the same compound?
**A.** −

**Q.** What about the “Cytotoxicity / CPE in cell wells, negative control group (wells 1-10)” value [4] of the same compound?
**A.** −

**Q.** What about the “Cytotoxicity / CPE in negative control group” value [4] of the same compound?
**A.** −

**Q.** And the “Cytotoxicity / CPE per cell well, negative control group” value [4]?
**A.** −

**Q.** And the “Cytotoxicity / CPE test, negative control group” value [4]?
**A.** −

**Q.** What about the “cell status in negative control group” value ([4]; MDCK cells, 0.2 mM group) of the same compound?
**A.** good growth status

**Q.** What about the “cytotoxicity in negative control group” value ([4]; MDCK cells, 1 mM group) of the same compound?
**A.** cytotoxicity was observed

**Q.** What about the “cytotoxicity in negative control group” value ([4]; MDCK cells, 5 mM group) of the same compound?
**A.** cytotoxicity was observed

**Q.** And the “cytotoxicity in negative control group” value ([4]; MDCK cells, sample of 10 times dilution in the 1 mM group)?
**A.** cytotoxicity was observed
